Experimental data taken from US20240374743A1, “BLETILLA STRIATA POLYSACCHARIDE IRON COMPLEX, PREPARATION METHOD THEREFOR AND USE THEREOF” (priority 2023, published 2024).

System: mouse model of iron deficiency anemia
Test: Anti-iron deficiency anemia test in mice
Assay type: in vivo, ICR mice
Procedure: Experimental animals: 35 ICR mice, clean grade, body weight 20-25 g, female.
Establishment of a mouse model of iron deficiency anemia: All mice were kept in a stainless steel cage, in which wood dust was used as padding to prevent iron from other sources from affecting the experimental results. The mice were adaptively fed at room temperature (24±1° C.) and humidity 50% for 3 days and then randomly divided into 7 groups, with 5 mice in each group. Five mice fed with basal feed (Fe>100 mg kg^−1) were used as a blank control group, and the remaining 30 mice were given a low-iron diet (Fe: 10 mg·kg^−1, AIN93 standard) and randomly divided into a model group (Model), a positive drug (Niferex) group, a ferrous sulfate (FeSO4) group, and low-dose, medium-dose and high-dose groups of the Bletilla striata polysaccharide-iron (III) complex prepared in Example 4. After adaptive feeding, 0.1 mL of blood was taken from the cheeks of all mice, and the routine blood test data, serum iron three-term test data, and other data were determined by using a blood cell analyzer and used as normal values before modeling. Blood was drawn from the cheek of each mouse twice a week, but the blood was not collected. The mice in each group got free access to water. After three consecutive weeks of feeding, 0.2 mL of blood was collected from the cheeks of the mice in each group and then measured for various hematological indexes, and the body weight changes were recorded and plotted. […] Mice that failed in modeling were excluded and were not included in any drug group.
Method of administration: Mice were administered by gavage at 8 am every day for 28 consecutive days. During gavage, the mice in each group got free access to water and fed normal diet. The mice in the blank control group and the model control group were given the same volume of distilled water, the mice in the positive drug group were given a drug with an Fe content of 0.039 mg/kg, the mice in FeSO4 group were given a drug with an Fe content of 0.039 mg/kg, and the mice in the low-dose, medium-dose and high-dose groups of the Bletilla striata polysaccharide-iron (III) complex were given drugs with Fe contents of 0.0195 mg/kg, 0.039 mg/kg, and 0.078 mg/kg, respectively. Except the blank control group, the other six groups were given a low-iron feed. The body weight was weighed, recorded, and plotted once a week, and the animal state was observed.
Sample collection: After the last administration by gavage, the mice in each group got free access to water for 12 hours and sacrificed, whole blood was collected from the heart to determine various biochemical indexes, including hemoglobin content (Hb) in red blood cells, red blood cell count (RBC), hematocrit (HCT), mean corpuscular volume (MCV), mean corpuscular hemoglobin content (MCH), mean corpuscular hemoglobin concentration (MCHC), red blood cell volume distribution width (RDW), serum iron (SI) content, total iron binding capacity (TIBC), and erythropoietin (EPO). Liver and spleen tissues were taken, weighed, and recorded, and the organ index was calculated. The organ coefficient was calculated according to the following equation, and a histogram was plotted for analysis: […]

[1] = Fe 0.039 mg/kg (medium-dose group), gavage 28 days
[2] = gavage 28 days, complex low-, medium- and high-dose groups, Niferex and FeSO4 Fe 0.039 mg/kg

## ferrous sulfate [FeSO4]
[1]
  HCT: 0.29 ± 0.05
  MCH: 17.83 ± 0.63
  MCHC: 400.49 ± 16.03
  MCV: 51.20 ± 2.07
  RBC value: 6.85 10^12/L
  RDW: 25.56 ± 2.99
Fe 0.039 mg/kg, gavage 28 days
  effect on EPO compared with model group: no regulatory effect on EPO
  liver index compared with model group: not strong
Fe 0.039 mg/kg, gavage daily 28 days
  body weight after 28 days of administration (comparison between groups): extremely significantly different from that in the control group
[2]
  Hb value compared with control group: not significantly different from that in the control group
  effect on total iron binding capacity (TIBC): best effect
